Assay [1] relates to rat vascular endothelial cells (RAOEC). Put plainly: OGD-R injury model, LDH detection, RAOEC. The class given is cell-based. To be noted: OGD 4 hours, restoration 24 hours, 1, 3, 10 μM, prophylactic (1 hour before OGD) or therapeutic (at restoration). The procedure:
HUVEC cells were cultured in modified DMEM medium containing 10% fetal bovine serum. When the cells reached about 80% confluence, the cells were digested with 0.25% trypsin, and then pipetted evenly with modified DMEM containing 10% fetal bovine serum. The cell concentration was adjusted to 1×10^5 cells/mL, and the cells were seeded at 400 uL/well in a 24-well plate, and the experiment was carried out when the cells grew to about 70% confluence. RAOEC cells were cultured in high-glucose DMEM medium containing 10% fetal bovine serum, and the seeding conditions were the same as those for HUVECs.
The hypoxia workstation was set to have an oxygen concentration of 1% (1% O2, 5% CO2, 94% N2), a temperature of 37° C., and a humidity of 85%. A sugar-free DMEM medium was placed in the hypoxia workstation for pre-hypoxia for 3 hours. The medium in the culture plate was aspirated, and the plate was washed twice with preheated sugar-free DMEM medium, and 100 uL of sugar-free DMEM medium was added to each well. […]
At the end of the experiment, 50 uL of medium was taken from each well into a 96-well plate, and then cytotoxicity was detected according to the operating instructions of the LDH detection kit. The results were calculated as follows: […]

Another assay has as its system NR4A3. The experiment in a line: NR4A3/CD31 immunofluorescence of lung tissue, acute hypobaric hypoxia. The class given is in vivo, Macaca fascicularis. The procedure:
Paraffin sections of Macaca fascicularis lung tissue, include 3 in the normal control group (normobaric normoxia, NN), 5 in the acute hypobaric hypoxia treatment group (hypobaric hypoxia, HH), and 5 in the acute hypobaric hypoxia+YC-6 treatment group (HH+YC-6).
The paraffin sections were placed in a 65° C. oven for 30 minutes, and then quickly transferred to 100% xylene for dewaxing, and then subjected to rehydration according to the regular process (100% xylene, 5 min—100% xylene, 2 min—100% xylene, 2 min—100% ethanol, 1 min—100% ethanol, 1 min—95% ethanol, 1 min—90% ethanol, 1 min—B0% ethanol, 1 min—70% ethanol, 1 min—50% ethanol, 1 min—distilled water, 1 min×3), and then EDTA antigen retrieval solution (microwave heating) was used for antigen retrieval. After the retrieval, it was naturally cooled to room temperature, and then washed three times with PBS for 5 minutes each time. The residual PBS on the tissue section was removed. A circle was drew around the tissue with an immunohistochemical pen, and then the corresponding primary antibody diluted in DAKO antibody diluent was added to the tissue to make it completely cover the tissue. The tissue section was incubated overnight in a humidified chamber at 4° C. Then it was washed 3 times with PBS for 5 minutes each time. […]

As for `C[C@@]12CCCC1C1C[C@@H](O)[C@]3(O)C[C@@H](O)CC[C@]3(C)C1CC2` (stereo partly drawn) [YC-6, 5α-androst-3β,5,6β-triol], in assay [1], the “OGD-R-induced increase in LDH release” value is “significantly reduced the OGD-R-induced increase in LDH release in a dose-dependent manner”. Also, the “NR4A3 protein expression in lung tissue endothelial cells” value in the assay with NR4A3 (NR4A3 co-localized with CD31, immunofluorescence) was “significantly increased the protein expression of NR4A3”. In addition, the “expression of vascular endothelial cell marker CD31 in lung tissue” value in the assay with NR4A3 (immunofluorescence) was “inhibited the down-regulation of the expression of vascular endothelial cell marker CD31”.
